# Data published in patent US11566007B2, “Ras inhibitors” (Revolution Medicines, Inc., priority 2019, dated 2023).
# What was measured:
# Type in all cases: biochemical
# [1] = target: KRAS G12V (Homo sapiens (Human), UniProt P01116+P62937, G12V); assay: Ras-Raf (BRAF RBD) disruption / FRET / MOA assay, KRAS G12V; conditions: read-out: IC50* KRAS G12V FRET data
# Summary of the method: (§1)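 A 10-point, 3-fold dilution series topping at 30 μM final was incubated 3 h at 25° C with the Ras/cyclophilin A/BRAF RBD mixture.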
# [2] = target: NRAS Q61R (Homo sapiens (Human), UniProt P01111+P62937, Q61R); assay: Ras-Raf (BRAF RBD) disruption / FRET / MOA assay, NRAS Q61R; conditions: NRAS Q61R; Ras-Raf disruption/FRET/MOA assay; read-out: IC50* NRAS Q61R FRET data
# Summary of the method: (§2)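 Compounds (30 μM top final, 10-point 3-fold dilutions) incubated 3 h at 25° C with nucleotide-loaded Ras, cyclophilin A and BRAF RBD. Detection with 10 nM anti-His Eu-W1024 and 50 nM anti-GST allophycocyanin over another 1.5 h. Lowered TR-FRET ratio relative to DMSO wells gives IC50.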
# [3] = target: K-Ras G13C (Homo sapiens (Human), UniProt P01116+P62937, G13C); assay: Ras-Raf (BRAF RBD) disruption / FRET / MOA assay, KRAS G13C; conditions: KRAS G13C; Ras-Raf disruption/FRET/MOA assay; read-out: IC50* KRAS G13C FRET data
# Summary of the method: as §1
# [4] = target: NRAS WT (Homo sapiens (Human), UniProt P01111+P62937); assay: Ras-Raf (BRAF RBD) disruption / FRET / MOA assay, NRAS WT; conditions: read-out: IC50* NRAS WT FRET data
# Summary of the method: as §2
# [5] = target: NRAS G12C (Homo sapiens (Human), UniProt P01111+P62937, G12C); assay: Ras-Raf (BRAF RBD) disruption / FRET / MOA assay, NRAS G12C; conditions: read-out: IC50* NRAS G12C FRET data
# Summary of the method: as §1
# [6] = target: NRAS Q61K (Homo sapiens (Human), UniProt P01111+P62937, Q61K); assay: Ras-Raf (BRAF RBD) disruption / FRET / MOA assay, NRAS Q61K; conditions: NRAS Q61K; Ras-Raf disruption/FRET/MOA assay; read-out: IC50* NRAS Q61K FRET data
# Summary of the method: as §2
# [7] = target: KRAS G13D (Homo sapiens (Human), UniProt P01116+P62937, G13D); assay: Ras-Raf (BRAF RBD) disruption / FRET / MOA assay, KRAS G13D; conditions: read-out: IC50* KRAS G13D FRET data
# Summary of the method: as §1
# [8] = target: KRAS Q61H (Homo sapiens (Human), UniProt P01116+P62937, Q61H); assay: Ras-Raf (BRAF RBD) disruption / FRET / MOA assay, KRAS Q61H; conditions: Ras-Raf disruption/FRET/MOA assay; class symbols; read-out: KRAS Q61H FRET data IC50
# Summary of the method: as §2
# [9] = target: K-Ras G12C (Homo sapiens (Human), UniProt P01116+P62937, G12C); assay: Ras-Raf (BRAF RBD) disruption / FRET / MOA assay, KRAS G12C; conditions: KRAS G12C; Ras-Raf disruption/FRET/MOA assay; read-out: IC50* KRAS G12C FRET data
# Summary of the method: as §1
# Chain of KRAS Q61H (P01116-2 other isoform, or with tags, fused parts or gaps Q61H): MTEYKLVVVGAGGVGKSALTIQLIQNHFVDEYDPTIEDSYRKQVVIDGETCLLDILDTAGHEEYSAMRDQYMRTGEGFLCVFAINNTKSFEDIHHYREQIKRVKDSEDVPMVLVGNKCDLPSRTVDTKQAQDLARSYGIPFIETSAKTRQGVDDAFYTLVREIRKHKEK
# Chain of KRAS Q61H (P62937 whole entry): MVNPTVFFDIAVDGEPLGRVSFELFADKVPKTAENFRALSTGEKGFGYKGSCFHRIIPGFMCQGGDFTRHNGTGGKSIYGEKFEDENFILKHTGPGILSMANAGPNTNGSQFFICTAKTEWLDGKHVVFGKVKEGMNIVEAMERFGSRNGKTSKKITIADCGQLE
# Chain of K-Ras G13C (P01116-2 other isoform, or with tags, fused parts or gaps G13C): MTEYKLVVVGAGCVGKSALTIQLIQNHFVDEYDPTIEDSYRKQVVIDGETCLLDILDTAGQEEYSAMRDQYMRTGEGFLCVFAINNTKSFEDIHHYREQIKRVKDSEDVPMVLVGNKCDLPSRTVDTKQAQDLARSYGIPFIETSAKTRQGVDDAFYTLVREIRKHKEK
# Chain of K-Ras G13C (P62937 whole entry): as the sequence (P62937 whole entry) above
# Chain of NRAS Q61R (P01111 whole entry Q61R): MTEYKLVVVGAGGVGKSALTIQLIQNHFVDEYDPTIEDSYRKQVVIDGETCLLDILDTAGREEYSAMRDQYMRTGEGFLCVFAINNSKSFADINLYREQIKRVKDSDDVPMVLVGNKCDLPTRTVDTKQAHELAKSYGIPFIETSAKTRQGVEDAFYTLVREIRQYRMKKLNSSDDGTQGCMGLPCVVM
# Chain of NRAS Q61R (P62937 whole entry): as the sequence (P62937 whole entry) above
# Chain of NRAS WT (P01111 whole entry): as the sequence (P01111 whole entry Q61R) above, with R61Q counted along it
# Chain of NRAS WT (P62937 whole entry): as the sequence (P62937 whole entry) above
# Chain of K-Ras G12C (P01116-2 other isoform, or with tags, fused parts or gaps G12C): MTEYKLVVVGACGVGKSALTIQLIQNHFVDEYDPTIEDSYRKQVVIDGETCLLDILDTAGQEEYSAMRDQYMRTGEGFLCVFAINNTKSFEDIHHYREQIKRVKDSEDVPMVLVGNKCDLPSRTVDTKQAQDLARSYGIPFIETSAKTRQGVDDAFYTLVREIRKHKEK
# Chain of K-Ras G12C (P62937 whole entry): as the sequence (P62937 whole entry) above
# Chain of NRAS G12C (P01111 whole entry G12C): as the sequence (P01111 whole entry Q61R) above, with G12C, R61Q counted along it
# Chain of NRAS G12C (P62937 whole entry): as the sequence (P62937 whole entry) above
# Chain of KRAS G13D (P01116-2 other isoform, or with tags, fused parts or gaps G13D): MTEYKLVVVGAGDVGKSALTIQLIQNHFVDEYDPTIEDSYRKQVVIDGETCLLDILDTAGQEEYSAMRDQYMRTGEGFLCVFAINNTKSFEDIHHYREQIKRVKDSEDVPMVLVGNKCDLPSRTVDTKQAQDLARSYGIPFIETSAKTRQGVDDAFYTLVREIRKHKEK
# Chain of KRAS G13D (P62937 whole entry): as the sequence (P62937 whole entry) above
# Chain of NRAS Q61K (P01111 whole entry Q61K): as the sequence (P01111 whole entry Q61R) above, with R61K counted along it
# Chain of NRAS Q61K (P62937 whole entry): as the sequence (P62937 whole entry) above
# Chain of KRAS G12V (P01116-2 other isoform, or with tags, fused parts or gaps G12V): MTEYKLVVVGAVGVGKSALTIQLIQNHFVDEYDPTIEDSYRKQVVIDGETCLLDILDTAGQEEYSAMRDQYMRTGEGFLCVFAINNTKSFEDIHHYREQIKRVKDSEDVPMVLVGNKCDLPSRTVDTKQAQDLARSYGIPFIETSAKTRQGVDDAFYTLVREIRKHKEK
# Chain of KRAS G12V (P62937 whole entry): as the sequence (P62937 whole entry) above
Structure (SMILES),IC50 [1],IC50 [2],IC50 [3],IC50 [4],IC50 [5],IC50 [6],IC50 [7],IC50 [8],IC50 [9]
"CCn1c(-c2cccnc2[C@H](C)OC)c2c3cc(ccc31)-c1csc(n1)C[C@H](NC(=O)[C@H](C(C)C)N(C)C(=O)N1C[C@H]3CN(C(=O)C#CC(C)(C)N(C)C)CC[C@H]31)C(=O)N1CCC[C@H](N1)C(=O)OCC(C)(C)C2 (atropisomer, axis not shown) [Example A624]",0.1 to 1 µM,0.1 to 1 µM,0.1 to 1 µM,0.1 to 1 µM,0.01 to 0.1 µM,0.1 to 1 µM,0.1 to 1 µM,0.1 to 1 µM,0.01 to 0.1 µM
"CCn1c(-c2cccnc2[C@H](C)OC)c2c3cc(ccc31)-c1csc(n1)C[C@H](NC(=O)[C@H](F)COC1CN(C(=O)C#CC(C)(C)N(C)C)C1)C(=O)N1CCC[C@H](N1)C(=O)OCC(C)(C)C2 (atropisomer, axis not shown) [Example A627]",> 10 µM,> 10 µM,> 10 µM,> 10 µM,< 0.01 µM,> 10 µM,> 10 µM,1 to 10 µM,< 0.01 µM
"C=C(C)C(=O)N1CC2(CCN(C(=O)N(C)[C@H](C(=O)N[C@H]3Cc4nc(cs4)-c4ccc5c(c4)c(c(-c4cccnc4[C@H](C)OC)n5CC)CC(C)(C)COC(=O)[C@@H]4CCCN(N4)C3=O)C(C)C)CC2)C1 (atropisomer, axis not shown) [Example A651]",0.1 to 1 µM,0.1 to 1 µM,0.1 to 1 µM,0.1 to 1 µM,0.01 to 0.1 µM,0.01 to 0.1 µM,0.1 to 1 µM,0.01 to 0.1 µM,0.01 to 0.1 µM
"C=CC(=O)N(C)C[C@H]1CCN(C(=O)N(C)[C@H](C(=O)N[C@H]2Cc3nc(cs3)-c3ccc4c(c3)c(c(-c3cccnc3[C@H](C)OC)n4CC)CC(C)(C)COC(=O)[C@@H]3CCCN(N3)C2=O)C(C)C)C1 (atropisomer, axis not shown) [Example A653]",0.1 to 1 µM,0.1 to 1 µM,0.1 to 1 µM,0.1 to 1 µM,0.01 to 0.1 µM,0.01 to 0.1 µM,0.1 to 1 µM,0.01 to 0.1 µM,0.01 to 0.1 µM
"C=CC(=O)N(C)C[C@@H]1CCN(C(=O)N(C)[C@H](C(=O)N[C@H]2Cc3nc(cs3)-c3ccc4c(c3)c(c(-c3cccnc3[C@H](C)OC)n4CC)CC(C)(C)COC(=O)[C@@H]3CCCN(N3)C2=O)C(C)C)C1 (atropisomer, axis not shown) [Example A654]",0.1 to 1 µM,0.1 to 1 µM,0.1 to 1 µM,0.1 to 1 µM,0.01 to 0.1 µM,0.01 to 0.1 µM,0.1 to 1 µM,0.01 to 0.1 µM,0.1 to 1 µM
"CCn1c(-c2cccnc2[C@H](C)OC)c2c3cc(ccc31)-c1cccc(c1)C[C@H](NC(=O)[C@@H](COC1CN(C(=O)C#CC(C)(C)N(C)CCO)C1)C(C)C)C(=O)N1CCC[C@H](N1)C(=O)OCC(C)(C)C2 (atropisomer, axis not shown) [Example A657]",> 10 µM,> 10 µM,1 to 10 µM,> 10 µM,0.01 to 0.1 µM,> 10 µM,> 10 µM,> 10 µM,0.01 to 0.1 µM
"CCn1c(-c2cccnc2[C@H](C)OC)c2c3cc(ccc31)-c1csc(n1)C[C@H](NC(=O)[C@@H](COC1CN(C(=O)C#CC(C)(C)N(C)C)C1)OC)C(=O)N1CCC[C@H](N1)C(=O)OCC(C)(C)C2 (atropisomer, axis not shown) [Example A660]",0.1 to 1 µM,1 to 10 µM,0.1 to 1 µM,0.1 to 1 µM,< 0.01 µM,0.1 to 1 µM,1 to 10 µM,0.1 to 1 µM,< 0.01 µM
"C=CC(=O)N1CC[C@@]2(CCN2C(=O)N(C)[C@H](C(=O)N[C@H]2Cc3nc(cs3)-c3ccc4c(c3)c(c(-c3cccnc3[C@H](C)OC)n4CC)CC(C)(C)COC(=O)[C@@H]3CCCN(N3)C2=O)C(C)C)C1 (atropisomer, axis not shown) [Example A661]",1 to 10 µM,0.1 to 1 µM,0.1 to 1 µM,0.1 to 1 µM,0.01 to 0.1 µM,0.01 to 0.1 µM,0.1 to 1 µM,0.01 to 0.1 µM,0.01 to 0.1 µM
"CCn1c(-c2cccnc2[C@H](C)OC)c2c3cc(ccc31)C1=CCCN(C1)C[C@H](NC(=O)[C@@H](COC1CN(C(=O)C#CC(C)(C)N(C)C)C1)C(C)C)C(=O)N1CCC[C@H](N1)C(=O)OCC(C)(C)C2 (atropisomer, axis not shown) [Example A663, (2R)-2-(((1-(4-(dimethylamino)-4-methylpent-2-ynoyl)405yridine405-3-yl)oxy)methyl)-N-((6^3S,4S)-1^1-ethyl-1^2-(2-((S)-1-methoxyethyl)405yridine-3-yl)-10,10-dimethyl-5,7-dioxo-2^1,2^2,2^3,2^6,6^1,6^2,6^3,6^4,6^5,6^6-decahydro-1^1H-8-oxa-1(5,3)-indola-6(1,3)-pyridazina-2(5,1)-pyridinacycloundecaphane-4-yl)-3-methylbutanamide]",> 10 µM,> 10 µM,1 to 10 µM,> 10 µM,< 0.01 µM,> 10 µM,> 10 µM,> 10 µM,< 0.01 µM
"CCn1c(-c2cccnc2[C@H](C)OC)c2c3cc(ccc31)-c1csc(n1)C[C@H](NC(=O)[C@H](C(C)C)N(C)C(=O)N1CCN(C(=O)/C=C/CN3CCOCC3)C3(CC3)C1)C(=O)N1CCC[C@H](N1)C(=O)OCC(C)(C)C2 (atropisomer, axis not shown) [Example A665]",0.01 to 0.1 µM,0.01 to 0.1 µM,0.1 to 1 µM,0.01 to 0.1 µM,0.01 to 0.1 µM,0.01 to 0.1 µM,0.1 to 1 µM,0.01 to 0.1 µM,0.01 to 0.1 µM
"CCn1c(-c2cccnc2[C@H](C)OC)c2c3cc(ccc31)-c1csc(n1)C[C@H](NC(=O)[C@H](C(C)C)N(C)C(=O)N1CCC3(CC1)CN(C(=O)/C=C/CN1CCOCC1)C3)C(=O)N1CCC[C@H](N1)C(=O)OCC(C)(C)C2 (atropisomer, axis not shown) [Example A669]",0.1 to 1 µM,0.01 to 0.1 µM,0.1 to 1 µM,0.01 to 0.1 µM,0.01 to 0.1 µM,0.01 to 0.1 µM,0.1 to 1 µM,0.01 to 0.1 µM,0.01 to 0.1 µM
"CCn1c(-c2cccnc2[C@H](C)OC)c2c3cc(ccc31)-c1csc(n1)C[C@H](NC(=O)[C@H](C(C)C)N(C)C(=O)N1CCC3(CC1)CN(C(=O)/C=C/CN1CCCCC1)C3)C(=O)N1CCC[C@H](N1)C(=O)OCC(C)(C)C2 (atropisomer, axis not shown) [Example A670]",0.1 to 1 µM,0.1 to 1 µM,0.1 to 1 µM,0.1 to 1 µM,0.1 to 1 µM,0.1 to 1 µM,0.1 to 1 µM,0.1 to 1 µM,0.1 to 1 µM
"C/C=C/C(=O)N1CC2(CCN(C(=O)N(C)[C@H](C(=O)N[C@H]3Cc4nc(cs4)-c4ccc5c(c4)c(c(-c4cccnc4[C@H](C)OC)n5CC)CC(C)(C)COC(=O)[C@@H]4CCCN(N4)C3=O)C(C)C)CC2)C1 (atropisomer, axis not shown) [Example A671]",0.1 to 1 µM,0.1 to 1 µM,0.1 to 1 µM,0.1 to 1 µM,0.01 to 0.1 µM,0.01 to 0.1 µM,0.1 to 1 µM,0.01 to 0.1 µM,0.01 to 0.1 µM
"CCn1c(-c2cccnc2[C@H](C)OC)c2c3cc(ccc31)-c1nc(co1)C[C@H](NC(=O)[C@@H](COC1CN(C(=O)C#CC(C)(C)N(C)C)C1)C(C)C)C(=O)N1CCC[C@H](N1)C(=O)OCC(C)(C)C2 (atropisomer, axis not shown) [Example A675, (2R)-2-(((1-(4-(dimethylamino)-4-methylpent-2-ynoyl)azetidin-3-yl)oxy)methyl)-N-((6^3S,4S,Z)-1^1-ethyl-1^2-(2-((S)-1-methoxyethyl)pyridin-3-yl)-10,10-dimethyl-5,7-dioxo-6^1,6^2,6^3,6^4,6^5,6^6-hexahydro-1^1H-8-oxa-2(2,4)-oxazola-1(5,3)-indola-6(1,3)-pyridazinacycloundecaphane-4-yl)-3-methylbutanamide]",> 10 µM,> 10 µM,> 10 µM,> 10 µM,0.01 to 0.1 µM,> 10 µM,> 10 µM,> 10 µM,0.01 to 0.1 µM
